Measured values as given in patent US20150335662A1, “METHODS FOR DIAGNOSING AND TREATING SEPSIS” (priority 2013, published 2015).

Tested on: Cecum Ligation-Puncture (CLP) induced sepsis
Assay: Cecum Ligation-Puncture (CLP) induced sepsis in rats, daily calcitriol dosing, survival and body weight
Format: in vivo, adult Wistar rats
Details: CLP septic rats
Method: Then, the optimal dosing of calcitriol as an example of an agent for treatment of sepsis according to the present invention was determined. Anesthesia was induced in adult Wistar rats with 5% isoflurane followed by maintenance on 2.5% isoflurane. The cecum was exteriorized via a small abdominal incision, and was then ligated approximately 3.5 […] distal to the cecum tip. The ligated cecum was punctured twice with a 26-gauge needle and was gently squeezed to extrude some stool. The cecum was replaced in the abdomen and the incision closed with 4-0 silk sutures in two layers, abdominal wall and skin. This Cecum Ligation-Puncture (CLP) procedure induced sepsis in the animals. Sham-operated rats were treated identically, except that the cecum was neither ligated nor punctured.
The rats then received either standard therapy (normal saline (30 ml/kg body weight) given once immediately after the CLP procedure to compensate the third-space fluid loss and imipenem (25 mg/kg body weight) daily subcutaneously) or therapy according to the present invention (calcitriol at 25 ng, 100 ng or 400 ng in peanut oil subcutaneously daily). The rats were monitored daily for body weight and survival.
Referring now to FIG. 9 and FIG. 10, there are shown, respectively, a graph of percent survival as a function of time after induction of sepsis in rats showing the effect of various doses of calcitriol (none, triangles; 25 ng daily, line; 100 ng daily, circles; and 400 ng daily, squares) (FIG. 9); and a graph of body weight in grams as a function of time after induction of sepsis in rats showing the effect of various doses of calcitriol (none, triangles; 25 ng daily, line; 100 ng daily, circles; and 400 ng daily, squares) (FIG. 10).

## C=C1C(=CC=C2CCC[C@]3(C)[C@@H]2CC[C@@H]3[C@H](C)CCCC(C)(C)O)C[C@@H](O)C[C@@H]1O [calcitriol, (1R,3S)-5-[2-[(1R,3aR,7aS)-1-[(2R)-6-hydroxy-6-methyl-heptan-2-yl]-7a-methyl-2,3,3a,5,6,7-hexahydro-1H-inden-4-ylidene]ethylidene]-4-methylidene-cyclohexane-1,3-diol]
400 ng daily subcutaneously
  signs of hypercalcemia: typical signs of hypercalcemia
400 ng daily subcutaneously, FIG. 9
  effect on survival: negatively affected
400 ng daily subcutaneously, FIG. 10
  effect on body weight: negatively affected
Calcitriol 25, 100 or 400 ng in peanut oil subcutaneously daily, FIG. 9
  optimal dose for survival: 100 ng daily
Calcitriol 25, 100 or 400 ng in peanut oil subcutaneously daily, FIG. 10
  optimal dose for body weight: 100 ng daily
